Experimental data from PMC12160547, “Identification of a Novel Small Molecule STING Agonist Reshaping the Immunomicroenvironment of Pancreatic Ductal Adenocarcinoma” (International Journal of Biological Sciences, 2025).
Values belong to the compound of their own block, whether it stands above or below them.

Key:
[1] = tested on: cGAS-STING pathway; parameters: method as in PMID 31036082; details: cited from earlier work
[2] = tested on: cGAS-STING pathway; assay: cGAS-STING pathway, IFN-β and ISG readout in pancreatic cancer organoids; type: cell-based, human; details: TBK1 inhibitor added to culture medium
Method: Tumor tissues or cells were thoroughly lysed in RIPA buffer containing protease and phosphatase inhibitors. The lysates were then centrifuged to collect the supernatant. Proteins were separated by electrophoresis in MOPS buffer and subsequently transferred onto a PVDF membrane. After blocking, the membrane was sequentially incubated with the primary antibody, secondary antibody, and chemiluminescent substrate (ECL) for imaging.
(§1) RNA from tumor tissues or cells was extracted using the SteadyPure Universal RNA Extraction Kit (Accurate Biology) and reverse transcribed into cDNA with the Evo M-MLV Reverse Transcription Kit (Accurate Biology). Relative RNA expression levels were quantified using 2X Universal SYBR Green Fast qPCR Mix (Abclonal), and the results were recorded on the qTOWER®3 84 Real-Time PCR system.
(§2) Multiplex cytokine detection was performed using Luminex cytokine bead array technology provided by WayenBio, Shanghai. In the mouse tumor model, levels of multiple cytokines were simultaneously measured and normalized to tumor weight. For the quantification of specific cytokines, such as IL-6 and IFN-β, enzyme-linked immunosorbent assay (ELISA) kits from Abclonal were used. The assays were conducted according to the manufacturer's instructions.

[3] = tested on: subcutaneous pancreatic tumor; assay: Subcutaneous pancreatic tumor model; type: in vivo, C57BL/6 mice; details: co-administered with D166
Method: C57BL/6 mice were obtained from Phenotek (Shanghai) and randomly assigned to groups, with a minimum of six mice per group. For the subcutaneous tumor model, approximately 5 × 10^5 tumor cells were suspended in 150 μL PBS and injected into the left flank of the mice. Tumor size was measured every four days starting from day 7 post-injection. On days 9, 12, and 15, the mice were administered three different concentrations of the drug via peritumoral injection, while the Control group received only the solvent. The mice were euthanized on day 25, and tumors were excised, weighed, and further analyzed.
as §2

[4] = cited from earlier work
[5] = target: T1, h-STING (Homo sapiens, UniProt Q86WV6, G230A/R293Q/R71H); assay: THP1-Dual reporter activation fold; type: cell-based
T1 construct: THP1-Dual Fold (10 μM); endogenous in cells; host or cells: THP1-Dual
T1 sequence (Q86WV6 whole entry R71H/G230A/R293Q): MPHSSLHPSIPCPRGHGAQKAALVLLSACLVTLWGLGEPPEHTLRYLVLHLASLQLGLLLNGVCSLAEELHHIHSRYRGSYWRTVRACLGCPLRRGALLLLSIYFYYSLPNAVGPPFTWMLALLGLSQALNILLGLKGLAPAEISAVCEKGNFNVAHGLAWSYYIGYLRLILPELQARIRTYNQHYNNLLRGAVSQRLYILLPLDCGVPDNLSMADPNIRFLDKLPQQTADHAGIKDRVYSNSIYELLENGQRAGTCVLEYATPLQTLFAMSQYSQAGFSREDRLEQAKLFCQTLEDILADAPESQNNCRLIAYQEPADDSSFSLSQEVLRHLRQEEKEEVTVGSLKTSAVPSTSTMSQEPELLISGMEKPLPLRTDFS

[6] = target: T2, m-STING (Mus musculus, UniProt Q3TBT3); assay: Raw-lucia reporter activation fold; type: cell-based
T2 construct: Raw-lucia Fold (50 μM); endogenous in cells; host or cells: RAW-Lucia
T2 sequence (Q3TBT3 1-378): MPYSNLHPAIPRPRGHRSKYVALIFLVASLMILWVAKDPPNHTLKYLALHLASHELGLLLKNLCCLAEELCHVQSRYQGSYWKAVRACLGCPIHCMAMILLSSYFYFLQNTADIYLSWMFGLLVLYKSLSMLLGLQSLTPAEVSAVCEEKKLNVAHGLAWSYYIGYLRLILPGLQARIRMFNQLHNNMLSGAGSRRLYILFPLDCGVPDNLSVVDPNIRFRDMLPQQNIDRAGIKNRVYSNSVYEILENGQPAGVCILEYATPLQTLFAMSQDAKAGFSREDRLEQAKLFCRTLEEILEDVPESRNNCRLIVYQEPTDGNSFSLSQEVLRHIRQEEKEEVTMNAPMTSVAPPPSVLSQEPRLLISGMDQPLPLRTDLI

[7] = tested on: STING signaling; assay: Relative gene expression in RAW-Lucia cells (RT-qPCR); type: cell-based, mouse
Method: as §1

[8] = Pharmacokinetic parameters, i.v. and p.o.; type: in vivo

Compound: Cc1ccc2c(=O)c3cccc(CC(=O)O)c3oc2c1C [DMXAA, 5,6-Dimethylxanthenone-4-acetic acid]
species in which the cGAS-STING pathway is activated [1]: only in mice

Compound: O=C(NCCCNc1nc(Nc2cccc(CN3CCOCC3)c2)ncc1C1CC1)C1CCC1 [MRT67037, reference compound]
effect on D166-induced ISG activation in organoids [2]: rescued the D166-induced ISG activation
effect on the tumor-killing effect of D166 [3]: counteracted the tumor-killing effect of D166

Compound: Nc1ncnc2c1ncn2[C@@H]1O[C@@H]2COP(=O)([S-])O[C@@H]3[C@H](O)[C@@H](COP([O-])(=S)O[C@H]2[C@H]1O)O[C@H]3n1cnc2c(N)ncnc21.[Na+].[Na+] (stereo partly drawn) [ADU-S100]
reason for termination in phase I clinical trials [4]: poor drug stability and systemic toxicity

Compound: Nc1nc2c(ncn2[C@@H]2O[C@@H]3CO[P@@](=O)(S)O[C@H]4[C@H](F)[C@H](n5cnc6c(N)ncnc65)O[C@@H]4CO[P@@](=O)(S)O[C@@H]2[C@@H]3F)c(=O)[nH]1 [MK-1454]
efficacy in clinical study ([4]; single-agent treatment group): limited efficacy as a monotherapy

THP1-Dual Fold (10 μM) [5]: 43.09 Fold
Raw-lucia Fold (50 μM) [6]: 22.59 Fold
AUCInf ([8]; i.v., average of three runs): 1372 ng·h/mL
CL ([8]; i.v., average of three runs): 12.3 mL/min/kg
MRTInf ([8]; i.v., average of three runs): 15.6 min
T1/2 ([8]; i.v., average of three runs): 39.6 min
Vz ([8]; i.v., average of three runs): 0.70 L/kg
AUCInf ([8]; p.o., average of three runs): 2852 ng·h/mL
MRTInf ([8]; p.o., average of three runs): 53.4 min
T1/2 ([8]; p.o., average of three runs): 65.4 min
F ([8]; p.o., oral bioavailability): 69.3%
Compound: COc1cc2cc(C(=O)CCC(=O)O)sc2cc1OC [MSA-2, reference compound]
Relative expression (Cxcl10/actin) [7]: 179.40 ± 2.58
Relative expression (Ifnb/actin) [7]: 125.70 ± 3.06
